Source: patent publication US20160017326A1, “MICRORNAS AS FUNCTIONAL MEDIATORS AND BIOMARKERS OF BONE METASTASIS” (THE TRUSTEES OF PRINCETON UNIVERSITY, priority 2013, published 2016)

Columns and labels:
Mitf 3'UTR = assay: 3'UTR luciferase reporter assay, Mitf; type: cell-based, mouse; conditions: co-transfection in HeLa, relative to negative control miRNA
Method: For NFκB reporter assays the pGL4.32 [luc2P/NF-κB-RE/Hygro] vector (Promega) was co-transfected with a Renilla-luciferase plasmid into cells. After 24 hours, cells were treated with 50 ng/ml RANKL, 50 ng/ml sICAM1, or 10 ng/ml TNFα for analysis at indicated timepoints. Wildtype and mutant 3′UTRs were PCR amplified from mouse genomic DNA. The 3′UTRs were cloned into the pMIR-REPORT vector (AMBION®) downstream of firefly luciferase. Mutations in miRNA target sites were generated using the QuikChange Multi site-directed mutagenesis kit (Stratagene). 5×10^4 HeLa cells were plated in 24-well plates 24 hours prior to transfection. 200 ng of reporter plasmid was co-transfected with the renilla-luciferase control plasmid and 10 pM pre-miRNA precursor or precursor control (AMBION®) using Lipofectamine 2000 (Invitrogen). Cells were lysed 24 hours after transfection and assayed for luciferase activity using the Glomax 96 Luminometer (Promega). Primer sequences for cloning or mutagenesis are listed below:
Reporter constructs were co-transfected with pre-miRs, as well as a Renilla luciferase plasmid for normalization.

RAW264.7 cells [1] = assay: RANKL-induced osteoclast differentiation, TRAP staining; type: cell-based, murine; conditions: all models tested
Description: HeLa and RAW264.7 cells (American Type Culture Collection, ATCC) were maintained in Dulbecco's modified Eagle's medium (DMEM) supplemented with 10% fetal bovine serum (FBS), penicillin/streptomycin (GIBCO), and fungizone. MOCP-5 cells were maintained in αMEM with 10% FBS and antibiotics. MDA-MB-231 parental cells (ATCC) and all sublines (SCP2, SCP4, SCP6, SCP28, SCP46) were maintained in DMEM with 10% FBS and antibiotics. The murine 4T1 and 4T1.2 cells, and human TSU-Pr1, and TSU-PR1-B2 cells were similarly maintained in DMEM with 10% FBS and antibiotics. For osteoclast differentiation assays, cells were treated with indicated concentration of RANKL in DMEM plus 10% FBS, with media changes performed every 2 days. Primary osteoclasts were isolated from bone marrow cells flushed from the tibia of 6-week-old wild type Balb/c mice and filtered through a […] cell-strainer before overnight culture in aMEM with 10% FBS. The following day 1×10^6 non-adherent cells were plated in 6-well plates supplemented with 50 ng/mL M-CSF for 2 days, followed by 50 ng/mL RANKL for an additional 4-5 days, with media changes every 2 days. Human osteoclasts were obtained from Lonza (2T-110) and differentiated by treatment with 33 ng/ml M-CSF and 66 ng/ml RANKL. CM was collected from the indicated sub-confluent tumor cells grown in DMEM with […] for 24 hours. The CM was passed through a 0.2 μm filter before addition to 1×10^5 RAW264.7 or MOCP-5 cells in a 6-well plate. The media was replaced with fresh CM daily. Cells were TRAP stained on day 6 using a leukocyte acid phosphatase kit (Sigma) and TRAP^+-multineucliated cells were quantified as mature osteoclasts. […]

[2] = Serum miRNA levels after injection of pre-miRNAs, qRT-PCR; type: in vivo, mice; conditions: qPCR of mouse serum
Method: RNA from cell lines was isolated using a miRVana miRNA isolation kit (AMBION®). Total RNA from mouse bleeds was isolated using Trizol LS (Invitrogen) according to manufacturers instructions. For microarrays, 5 μg total RNA was labeled using the NCode Rapid Labeling System (Invitrogen) and hybridized to custom arrays. The arrays were analyzed using the G2565BA scanner (Agilent Technologies), and median fluorescent intensities were obtained after subtracting background. To identify differential miRNA expression between samples, the median fluorescent intensities were normalized using the median expression values within the array and log 2 values analyzed.
mRNA was analyzed by synthesizing cDNA using the Superscript III First-strand kit (Invitrogen) and qPCR performed using the Power SYBR® green PCR master mix (Applied Biosystems). Mature miRNAs were reverse transcribed using the TaqMan Reverse Transcription Kit (Applied Biosystems) followed by real-time PCR using TaqMan miRNA assays (Applied Biosystems). All analysis was performed using an ABI 7900HT PCR machine according to the manufacturer's instructions. A standard curve was created from serial dilutions from cDNA for each gene of interest. Values were normalized by the expression of GAPDH or RNU6B in each sample.
FIG. 8C illustrates qRT-PCR miRNA expression levels from serum samples of mice taken at indicated times after injection with miRNAs. The results were statistically significant with p<0.01 (**). […] In contrast, miR-141 and miR-219 took substantially longer to clear from the serum, maintaining ˜20% of the normalized expression at 24 hours.

RAW264.7 cells [3] = assay: In vitro bone resorption assay on bovine bone slices; type: cell-based, murine; conditions: miRNA transfection, 50 ng/ml RANKL, relative to control cells
Method: 5×10^4 pre-osteoclast cells were seeded onto 1 mm thick slices of bovine bone cut using a diamond saw and sterilized by immersion in 70% ethanol. Cells were cultured for 10 days as indicated in 6-well plates, transferred to fresh plates and washed to remove osteoclasts. Bone slices were stained in a solution of 1% toludine blue in 0.5% sodium tetraborate, destained in PBS plus 1% Triton X-100, and imaged by light microscopy.
In vitro bone resorption assay was then used to measure the effect of ectopic miRNA expression on osteoclast activity. […] Referring to this figures, scale bar represents 200 μm. Results were statistically significant with p<0.01 (**) and p<0.001 (***). […] Since these miRNAs may inhibit osteoclast differentiation or function by targeting different mRNAs, the repression of osteoclast differentiation was further examined using combinations of inhibitory miRNAs. Given that transient transfection with 10 pM of miRNA precursors was sufficient to inhibit up to approximately 90% of osteoclast differentiation, RAW264.7 cells were treated with a combination of miRNAs at a reduced concentration of 1 pM total precursors.

| Substance | luciferase reporter activity, Mitf 3'UTR (Mitf 3'UTR) | osteoclast maturation and activity (RAW264.7 cells [1]) | serum miRNA level within 6 hours of injection [2] | clearance from serum within 24 hours [2] | bone resorption (osteoclast activity) (RAW264.7 cells [3]) | reduction of Mitf expression (3'UTR reporter) (Mitf 3'UTR) [%] | normalized serum expression remaining at 24 hours [2] [%] |
| --- | --- | --- | --- | --- | --- | --- | --- |
| miR-133a: miRNA, SEQ ID NO: 61; delivered as pre-miRNA precursor; targets Mitf and Mmp14 (UUUGGUCCCCUUCAACCAGCUA; delivered as pre-miRNA precursor, chemistry not given here; listed as Homo sapiens) | repress expression of Mitf | strongly inhibit | substantial decrease | nearly full clearance | dramatically limited osteoclast activity | – | – |
| miR-141: miRNA, SEQ ID NO: 69; delivered as pre-miRNA precursor; targets Mitf and Calcr (UAACACUGUCUGGUAACGAUGU; delivered as pre-miRNA precursor, chemistry not given here; listed as Homo sapiens) | repress expression of Mitf | strongly inhibit | – | – | dramatically limited osteoclast activity | ~50 | ~20 |
| miR-190: miRNA, SEQ ID NO: 64; delivered as pre-miRNA precursor; targets Calcr (UGAUAUGUUUGAUAUAUUAGGU; delivered as pre-miRNA precursor, chemistry not given here; listed as Homo sapiens) | – | Partial inhibition | substantial decrease | nearly full clearance | dramatically limited osteoclast activity | – | – |
| miR-219: miRNA, SEQ ID NO: 66; delivered as pre-miRNA precursor; targets Mitf and Traf6 (UGAUUGUCCAAACGCAAUUCU; delivered as pre-miRNA precursor, chemistry not given here; listed as Homo sapiens) | repress expression of Mitf | strongly inhibit | – | – | dramatically limited osteoclast activity | ~20 | ~20 |
